According to patent US6476010B2, “Method for increasing intestinal absorption of fat soluble vitamins in post-menopausal women and lower animals” (Hill's Pet Nutrition, priority 2000, dated 2002):

Columns and labels:
[1] = tested on: ovariectomized rats; assay: Liver levels and biliary secretion of α-tocopherol after 8 weeks of dietary carnitine (bile duct cannulation); format: in vivo, rat
Procedure: Thirty two 10 weeks old female Sprague-Dawley rats weighing 214±6 g (Harlan Sprague Dawley, Indianapolis, Ind.) were placed individually in plastic cages with stainless steel wire-bottoms in a windowless room at a controlled temperature of about 23° C. and subjected to a light-dark cycle with the light period from 3:30 pm to 3:30 am and the dark period from 3:30 am to 3:30 pm. The rats were acclimatized for 1 week with free access to the deionized water and ad libitum fed a zinc-adequate AIN-93G diet (Reeves et al., J Nutr 1993;123:1939-1951) formulated by Dyets, Inc. (Bethlehem, Pa., USA) with 7% soybean oil as a fat source. Zinc carbonate was added to provide the desired levels of zinc. At the end of the first week, at the average body weight of 230±12 g, the rats were ovariectomized under halothane anesthesia after 16 hours of fasting. Initial blood samples (week 0) were taken from 5 randomly selected rats. After 1 week of postoperative recovery, rats were divided into the following two experimental groups by matching body weight: One group of rats was fed a zinc-adequate AIN-93G diet containing α-tocopherol-stripped soybean oil; 150 ppm Sipernat® 50, which is hydrated silica available from Degussa Corporation, Ridgefield, N.J.; and supplemented with 150 mg/kg L-carnitine. A control group was fed the same diet, except that the 150 mg/kg of L-carnitine was substituted with 150 ppm of α-D-glucose. The normal food intake for both groups was around 15 g/day/rat. Blood samples were taken at the beginning of 1, 3, 5, 8 weeks from 5 randomly selected rats in each group. At the end of the 8th week, bile duct cannulation was performed on the rats in both groups having an average body weight of about 340±15 g. Cannulation of the common bile duct was performed, following 16 hours food deprivation, as described previously (Noh et al., J Nutr Biochem 1999;10:110-117). Briefly, after performing a midline abdominal incision, the common bile duct was cannulated with PE-10 tubing (Clay Adams, Sparks, Md.) under halothane anesthesia (2.0% halothane in 2.01 oxygen/min). A silicone feeding catheter (Silastic medical grade tubing, Dow Coming, Midland, Mich.) was inserted into the gastric fundus region. The infusion catheter was exteriorized alongside the bile cannula through the right flank. Cannulated rats were placed in individual restraining cages and allowed to recover for at least 20 hours in a warm recovery chamber kept at about 30° C. Immediately after surgery, glucose-phosphate buffered saline (PBS) (in mmol/l: 277 glucose, 6.75 Na2HPO4, 16.5 NaH2PO4, 115 NaCl, and 5 KCI; pH 6.7) was continuously infused through the duodenal cannula at 3.0 ml/h via a syringe pump (Harvard Apparatus, Model 935, South Natick, Mass.). After postoperative recovery, rats were infused with a lipid emulsion containing 565 μmol triolein (95%, Sigma Chemical, St. Louis, Mo.), and 396 μmol sodium taurocholic acid in 24 ml of PBS. Bile was collected hourly for 8 hours in pre-weighed conical centrifuge tubes containing 30 μg of n-propyl gallate in ice filled beakers. After bile collection, the rats were killed by cervical dislocation, and the livers were dissected. The samples were stored at about −70° C. until analysis. Lipids were extracted by Folch's method (Folch et al., J Biol Chem 1957;226:497-509). The content of α-tocopherol was determined as described by Zaspel et al. (Anal. Biochem. 1983;130:146-150). […]

[2] = tested on: ovariectomized rats; assay: Lymphatic absorption of α-tocopherol after 5 weeks of dietary carnitine (mesenteric lymph duct cannulation); format: in vivo, rat; settings: carnitine supplemented diet for 5 weeks
Procedure: Thirty two 10 weeks old female Sprague-Dawley rats weighing 208±8 g (Harlan Sprague Dawley, Indianapolis, Ind.) were housed and fed as described in Example 1. At the end of second week, at the average body weight of 240±9 g, the rats were ovariectomized under halothane anesthesia after 16 hours fasting. Initial (0 week) blood samples were taken from 6 randomly selected rats.
Immediately after surgery, rats were divided into the following two experimental groups as described in Example 1, i.e., one group was fed a diet supplemented with carnitine, and one control group. The normal food intake for both groups was about 15-16 g/day/rat.
At the end of the 5th week, Lymph duct cannulation was performed on each group having an average body weight of 340±15 g. Cannulation of the mesenteric lymph duct was performed, following 16 hours food deprivation, as described previously (Noh et al., supra). Briefly, after a midline abdominal incision was performed, the mesenteric lymph duct was cannulated with polyethylene tubing (SV 31 tubing, Dural Plastics, Auburn, Australia) by securing with a drop of cyanoacrylate glue (Krazy Glue, Columbus, Ohio) under halothane anesthesia (2.0% halothane in 2.01 oxygen/min). A silicone feeding catheter (Silastic medical grade tubing, Dow Coming, Midland, Mich.) was inserted into the gastric fundus region. The infusion catheter was exteriorized alongside the lymph cannula through the right flank. Cannulated rats were placed in individual restraining cages and allowed to recover for at least 20 hours in a warm recovery chamber kept at about 30° C. Immediately following surgery, glucose-phosphate buffered saline (PBS) (in mmol/l: 277 glucose, 6.75 Na2HPO4, 16.5 NaH2PO4, 115 NaCl, and 5 KCI; pH 6.7) was continuously infused through the duodenal cannula at 3.0 ml/h via a syringe pump (Harvard Apparatus, Model 935, South Natick, Mass.).
After postoperative recovery, rats were infused with a lipid emulsion containing 1 μCi of [carboxyl-^14C]-triolein (specific activity 112.0 mCi/mmol, DuPont NEN, Boston, Mass.), 565 μmol triolein (95%, Sigma Chemical, St. Louis, Mo.), 3.56 μmol α-tocopherol (all-rac-a-tocopherol, 97%, Aldrich Chemical, Milwaukee, Wis.), and 396 μmol sodium taurocholic acid in 24 ml of PBS. Lymph was collected hourly for 8 hours in pre-weighed conical centrifuge tubes containing 30 μg of n-propyl gallate and 4 mg of Na2EDTA in ice-filled beakers. After lymph collection, the rats were killed by cervical dislocation, and the livers were collected. The samples were stored at about −70° C. until analysis.
From the lipid extracted (Folch et al., supra), tissue total phospholipid was measured colorimetrically by the method of Reheja et al. (J Lipid Res 1973;14:695-697). Tissue total cholesterol was determined as described by Rudel et al. (J Lipid Res 1973;21:364-366). Alpha-tocopherol was determined as described by Zaspel et al (supra) and in Example 1 above. Statistical analyses were conducted as described in Example 1.

[3] = significant difference vs control

`C[N+](C)(C)C[C@H](O)CC(=O)[O-]` [carnitine, L-carnitine] was tested, and the “α-tocopherol concentration per 100 mg total lipid” value ([1]; liver, ovariectomized rats fed a carnitine supplemented diet, compared with control) was “significantly higher”, the bile flow ([1]; ovariectomized Sprague-Dawley rats, diet with 150 mg/kg L-carnitine for 8 weeks, bile collected for 8 hours, no difference vs control, mean±SD) was 7.9±1.4 ml/8 hours and the “biliary secretion of α-tocopherol for 8 hours” value ([1]; ovariectomized rats, diet with 150 mg/kg L-carnitine for 8 weeks, P<0.05 vs control, mean±SD) was 53.1 ± 9.3 nmol. For the same molecule, the “ratio of liver α-tocopherol/phospholipid” value ([1]; ovariectomized rats, diet with 150 mg/kg L-carnitine for 8 weeks, P=0.001 vs control) was 4.8±0.6 nmol/μmol, the “liver concentration of α-tocopherol” value ([1]; ovariectomized rats, diet with 150 mg/kg L-carnitine for 8 weeks, significantly elevated vs control) was 129.6 ± 19.5 nmol/g and the “lymphatic absorption of α-tocopherol for 8 hours” value ([2]; lipid emulsion with 3.56 μmol α-tocopherol infused, P<0.05 vs control) was 899±200 nmol/8 h. The lymph flow ([2]; lymph collected for 8 hours, no difference vs control) was 22.6±4.2 ml/8 hours, the “absorption of 14C-triolein” value ([2]; lymph for 8 hours, P<0.05 vs control) was 53.5±4.0 % dose and the “ratio of lymph α-tocopherol/cholesterol” value [2, 3] was 82.7±17.1 nmol/μmol. The “ratio of lymph α-tocopherol/phospholipid” value [2, 3] was 46.9±8.8 nmol/μmol.
